# Measured values as given in patent publication US8148391B2 (Cephalon, Inc., priority 2006, dated 2012).
# Where two headings read alike, the source gives them in different places.
# Experiments:
# [1] = biological target: T1, baculovirus-expressed ALK (Homo sapiens, UniProt Q9UM73); test: ALK Kinase Assay (ELISA-type, time-resolved fluorescence); type: biochemical
# T1 construct: host or cells: baculovirus expression system
# How it was run: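 Substrate coating: phospholipase C-γ, 10 μg/mL in TBS. Kinase step: 30 ng/ml ALK, 15 min, 37° C. Detection and analysis: Eu-N1 PT66 antibody, with IC50 fitted as a sigmoidal variable-slope dose-response curve.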
# [2] = biological target: T2, c-Met (cytoplasmic domain) (Homo sapiens, UniProt P08581); test: c-Met Kinase Assay (same methods as for ALK, with modifications); type: biochemical
# T2 construct: 10 ng/mL c-Met (cytoplasmic domain, Invitrogen Corporation #PV3143); purchased Invitrogen Corporation PV3143
# How it was run: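 This plate-based kinase format uses immobilized phospholipase C-γ as substrate, phosphorylated by c-Met cytoplasmic domain (10 ng/mL) at 37° C for 15 minutes.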
# [3] = ALK kinase inhibition, 1 μM ATP, read-out: ALK Activity
# [4] = c-Met kinase inhibition, 1 μM ATP, read-out: cMet Activity
# [5] = 1 μM ATP (Km level), 30 ng/ml ALK, 37° C., 15 minutes, read-out: ALK Activity (ALK kinase inhibition, IC50 class)
# [6] = 1 μM ATP (Km level), 10 ng/mL c-Met, read-out: cMet Activity (c-Met kinase inhibition, IC50 class)
# [7] = ALK kinase inhibition, 1 μM ATP (Km level), read-out: ALK Activity
# [8] = c-Met kinase inhibition, 1 μM ATP (Km level), read-out: cMet Activity
# [9] = 1 μM ATP (Km level), read-out: ALK Activity (ALK Kinase Inhibition, IC50)
# [10] = 1 μM ATP (Km level), read-out: cMet Activity (c-Met Kinase Inhibition, IC50)
# T1 sequence (Q9UM73 19-1620): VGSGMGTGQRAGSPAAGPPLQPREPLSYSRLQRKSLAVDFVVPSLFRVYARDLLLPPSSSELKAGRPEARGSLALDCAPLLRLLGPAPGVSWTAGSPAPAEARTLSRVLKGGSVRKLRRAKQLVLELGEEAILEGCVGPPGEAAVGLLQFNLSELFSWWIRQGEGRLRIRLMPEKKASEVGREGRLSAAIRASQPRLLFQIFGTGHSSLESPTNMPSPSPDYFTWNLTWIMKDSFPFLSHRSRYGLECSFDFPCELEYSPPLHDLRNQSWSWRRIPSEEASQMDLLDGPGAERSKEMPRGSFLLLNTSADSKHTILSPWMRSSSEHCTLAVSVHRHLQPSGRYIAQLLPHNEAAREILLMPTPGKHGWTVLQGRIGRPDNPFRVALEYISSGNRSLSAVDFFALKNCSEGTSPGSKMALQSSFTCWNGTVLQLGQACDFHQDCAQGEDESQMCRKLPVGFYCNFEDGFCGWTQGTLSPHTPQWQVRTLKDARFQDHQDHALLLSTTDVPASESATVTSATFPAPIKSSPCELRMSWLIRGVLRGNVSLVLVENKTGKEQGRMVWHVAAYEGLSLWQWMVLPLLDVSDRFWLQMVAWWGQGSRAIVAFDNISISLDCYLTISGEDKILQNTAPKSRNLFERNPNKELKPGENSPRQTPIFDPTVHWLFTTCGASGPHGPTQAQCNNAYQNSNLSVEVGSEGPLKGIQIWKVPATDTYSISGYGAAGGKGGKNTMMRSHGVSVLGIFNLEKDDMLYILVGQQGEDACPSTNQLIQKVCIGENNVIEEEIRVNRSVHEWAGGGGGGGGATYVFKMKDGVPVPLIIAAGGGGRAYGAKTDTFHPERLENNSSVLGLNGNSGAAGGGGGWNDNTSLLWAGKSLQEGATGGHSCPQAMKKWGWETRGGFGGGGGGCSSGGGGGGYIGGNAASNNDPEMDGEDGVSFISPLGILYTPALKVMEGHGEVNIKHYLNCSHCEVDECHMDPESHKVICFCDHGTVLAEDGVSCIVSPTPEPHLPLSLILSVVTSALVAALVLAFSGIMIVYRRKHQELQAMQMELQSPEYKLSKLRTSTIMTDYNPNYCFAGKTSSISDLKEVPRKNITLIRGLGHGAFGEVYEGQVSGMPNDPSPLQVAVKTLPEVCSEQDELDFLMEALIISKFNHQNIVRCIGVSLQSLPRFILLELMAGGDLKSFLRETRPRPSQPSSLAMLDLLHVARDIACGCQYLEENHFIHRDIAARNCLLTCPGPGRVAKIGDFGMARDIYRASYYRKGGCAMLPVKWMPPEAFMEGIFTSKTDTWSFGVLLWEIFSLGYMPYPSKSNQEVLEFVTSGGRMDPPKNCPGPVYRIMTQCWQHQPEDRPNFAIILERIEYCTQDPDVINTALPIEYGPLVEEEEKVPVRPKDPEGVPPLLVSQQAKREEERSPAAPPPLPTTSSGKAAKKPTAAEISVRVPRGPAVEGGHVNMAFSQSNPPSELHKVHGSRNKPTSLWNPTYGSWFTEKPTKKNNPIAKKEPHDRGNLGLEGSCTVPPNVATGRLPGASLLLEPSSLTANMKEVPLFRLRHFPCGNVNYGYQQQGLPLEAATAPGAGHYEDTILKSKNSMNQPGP
# T2 sequence (P08581 956-1390 limits assumed): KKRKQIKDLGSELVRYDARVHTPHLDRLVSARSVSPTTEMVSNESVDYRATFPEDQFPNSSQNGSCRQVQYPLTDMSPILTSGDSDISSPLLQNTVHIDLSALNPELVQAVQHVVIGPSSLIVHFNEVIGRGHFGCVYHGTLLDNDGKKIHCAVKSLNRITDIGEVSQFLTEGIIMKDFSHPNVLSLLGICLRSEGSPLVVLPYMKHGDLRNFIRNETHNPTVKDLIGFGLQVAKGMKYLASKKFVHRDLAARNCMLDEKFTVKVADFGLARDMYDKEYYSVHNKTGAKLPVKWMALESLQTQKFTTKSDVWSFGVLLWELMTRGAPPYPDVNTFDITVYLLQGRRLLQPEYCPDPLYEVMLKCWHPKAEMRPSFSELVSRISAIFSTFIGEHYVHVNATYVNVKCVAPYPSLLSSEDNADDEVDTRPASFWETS
compound,measurement,setting,value
"COc1cc2c(cc1Nc1ncc(C(F)(F)F)c(Nc3ccc(N4CCOCC4)cc3OC)n1)CCOC(=O)N2C [Example 1514, 3-Methoxy-2-[4-(2-methoxy-4-morpholin-4-yl-phenylamino)-5-trifluoromethyl-pyrimidin-2-ylamino]-5-methyl-8,9-dihydro-5H-7-oxa-5-aza-benzocyclohepten-6-one]",IC50,[1]; [3],< 0.1 µM
same,IC50,[2]; [4],> 10 µM
"CNC(=O)c1cccc(F)c1Nc1nc(Nc2ccc3c(c2)-n2ccnc2CCC3(C)C)ncc1Cl [Example 1270, 2-[5-Chloro-2-(6,6-dimethyl-5,6-dihydro-4H-3,10b-diaza-benz[e]azulen-9-ylamino)-pyrimidin-4-ylamino]-3-fluoro-N-methyl-benzamide]",IC50,[1]; [5],0.1 to 1 µM
same,IC50,[2]; [6],< 0.1 µM
"COc1ccc2c(c1Nc1ncc(Cl)c(N[C@@H]3CCCC[C@H]3NS(C)(=O)=O)n1)CCC(NCC(F)F)CC2 (single isomer, unassigned) [Example 1074]",IC50,[1]; [5],0.1 to 1 µM
same,IC50,[2]; [6],> 10 µM
"CCN1C(=O)[C@H](N2CCOCC2)CCc2c1ccc(Nc1ncc(Cl)c(N[C@H]3[C@@H](C(N)=O)[C@@H]4C=C[C@H]3C4)n1)c2OC (single isomer, unassigned) [Example 1344]",IC50,[1]; [5],< 0.1 µM
same,IC50,[2]; [6],> 10 µM
"CCN1C(=O)CCC(C)(C)c2cc(Nc3ncc(Cl)c(Nc4ccccc4C(=O)NC)n3)ccc21 [Example 387, 2-[5-Chloro-2-(1-ethyl-5,5-dimethyl-2-oxo-2,3,4,5-tetrahydro-1H-benzo[b]azepin-7-ylamino)-pyrimidin-4-ylamino]-N-methyl-benzamide]",IC50,[1]; [7],< 0.1 µM
same,IC50,[2]; [8],< 0.1 µM
"N-(2-{5-Chloro-2-[3-methyl-5-oxo-1-(2,2,2-trifluoro-acetyl)-2,3,4,5-tetrahydro-1H-benzo[e][1,4]diazepin-6-ylamino]-pyrimidin-4-ylamino}-phenyl)-methanesulfonamide and N-(2-{5-Chloro-2-[2-methyl-5-oxo-1-(2,2,2-trifluoro-acetyl)-2,3,4,5-tetrahydro-1H-benzo[e][1,4]diazepin-6-ylamino]-pyrimidin-4-ylamino}-phenyl)-methanesulfonamide (Mixture of regioisomers) [Example 230]",IC50,[1]; [7],< 0.1 µM
same,IC50,[2]; [8],1 to 10 µM
"COc1c(Nc2ncc(Cl)c(N[C@H]3[C@@H](C(N)=O)[C@@H]4C=C[C@H]3C4)n2)ccc2c1CCC(N1CCCC(O)C1)CC2 (stereo partly drawn) [Example 909, (1S,2S,3R,4R)-3-{5-Chloro-2-[7-(3-hydroxy-piperidin-1-yl)-1-methoxy-6,7,8,9-tetrahydro-5H-benzocyclohepten-2-ylamino]-pyrimidin-4-ylamino}-bicyclo[2.2.1]hept-5-ene-2-carboxylic acid amide]",IC50,[1]; [9],< 0.1 µM
same,IC50,[2]; [10],1 to 10 µM
"COc1cc2c(cc1Nc1ncc(Cl)c(Nc3ccccc3S(=O)(=O)N3CCCC3)n1)CCN(CC(C)O)CC2 (stereo not drawn) [Example 1553, 1-(7-{5-Chloro-4-[2-(pyrrolidine-1-sulfonyl)-phenylamino]-pyrimidin-2-ylamino}-8-methoxy-1,2,4,5-tetrahydro-3-benzazepin-3-yl)-propan-2-ol]",IC50,[1]; [3],< 0.1 µM
same,IC50,[2]; [4],0.1 to 1 µM
"COc1cc2c(cc1Nc1ncc(Cl)c(Nc3ccccc3S(=O)(=O)N3CCCC3)n1)CCN(CCS(C)(=O)=O)CC2 [Example 1178, 5-Chloro-N*2*-[3-(2-methanesulfonyl-ethyl)-8-methoxy-2,3,4,5-tetrahydro-1H-benzo[d]azepin-7-yl]-N*4*-[2-(pyrrolidine-1-sulfonyl)-phenyl]-pyrimidine-2,4-diamine]",IC50,[1]; [5],< 0.1 µM
same,IC50,[2]; [6],0.1 to 1 µM
"COc1cc2c(cc1Nc1ncc(Cl)c(Nc3ccc(N4CCN(C(C)C)CC4)c4c3C(=O)N(C)C4)n1)CCN(CCO)CC2 [Example 953, 7-{5-Chloro-2-[3-(2-hydroxy-ethyl)-8-methoxy-2,3,4,5-tetrahydro-1H-3-benzazepin-7-ylamino]-pyrimidin-4-ylamino}-4-(4-isopropyl-piperazin-1-yl)-2-methyl-2,3-dihydro-isoindol-1-one]",IC50,[1]; [9],< 0.1 µM
same,IC50,[2]; [10],> 10 µM
"CNC(=O)c1ccccc1Nc1nc(Nc2ccc3c(c2)CC(=O)N(C)CC3)ncc1Cl [Example 1815, 2-[5-Chloro-2-(3-methyl-4-oxo-2,3,4,5-tetrahydro-1H-benzo[d]azepin-7-ylamino)-pyrimidin-4-ylamino]-N-methylbenzamide]",IC50,[1]; [3],1 to 10 µM
same,IC50,[2]; [4],0.1 to 1 µM
"CCN1CCc2ccc(Nc3ncc(Cl)c(N[C@@H]4CCCC[C@H]4NC(=O)N(C)C)n3)cc2CC1 [Example 447, 3-{(1R,2R)-2-[5-Chloro-2-(3-ethyl-2,3,4,5-tetrahydro-1H-benzo[d]azepin-7-ylamino)-pyrimidin-4-ylamino]-cyclohexyl}-1,1-dimethyl-urea]",IC50,[1]; [7],0.1 to 1 µM
same,IC50,[2]; [8],0.1 to 1 µM
"CCNC(=O)c1ccccc1Nc1nc(Nc2cccc3c2OCCCC3(C)C)ncc1Cl [Example 873, 2-[5-Chloro-2-(5,5-dimethyl-2,3,4,5-tetrahydro-benzo[b]oxepin-9-ylamino)-pyrimidin-4-ylamino]-N-ethyl-benzamide]",IC50,[1]; [9],< 0.1 µM
same,IC50,[2]; [10],> 10 µM
"COc1cc2c(cc1Nc1ncc(Cl)c(Nc3ccccc3-n3cccn3)n1)CCN(CC(=O)N(C)C)CC2 [Example 1320, 2-{7-[5-Chloro-4-(2-pyrazol-1-yl-phenylamino)-pyrimidin-2-ylamino]-8-methoxy-1,2,4,5-tetrahydro-benzo[d]azepin-3-yl}-N,N-dimethyl-acetamide]",IC50,[1]; [5],< 0.1 µM
same,IC50,[2]; [6],> 10 µM
"COc1cc2c(cc1Nc1ncc(Cl)c(Nc3ccccc3S(=O)(=O)N3CCCC3)n1)CCN(CC(=O)N(C)C)CC2 [Example 1181, 2-(7-{5-Chloro-4-[2-(pyrrolidine-1-sulfonyl)-phenylamino]-pyrimidin-2-ylamino}-8-methoxy-1,2,4,5-tetrahydro-benzo[d]azepin-3-yl)-N,N-dimethyl-acetamide]",IC50,[1]; [5],< 0.1 µM
same,IC50,[2]; [6],1 to 10 µM
"CC(=O)OCCN1CCSc2ccc(Nc3ncc(Cl)c(N[C@@H]4CCCC[C@H]4NS(C)(=O)=O)n3)cc2C1 [Example 526, Acetic acid 2-{2-[5-chloro-4-((1R,2R)-2-methanesulfonylamino-cyclohexylamino)-pyrimidin-2-ylamino]-6,7-dihydro-9H-5-thia-8-aza-benzocyclohepten-8-yl}-ethyl ester]",IC50,[1]; [9],< 0.1 µM
same,IC50,[2]; [10],1 to 10 µM
"CNC(=O)c1cc(F)cc(Cl)c1Nc1nc(Nc2ccc3c(c2)CCOC(=O)N3C)ncc1Cl [Example 1758, 3-Chloro-2-[5-chloro-2-(5-methyl-6-oxo-5,6,8,9-tetrahydro-7-oxa-5-aza-benzocyclohepten-2-ylamino)-pyrimidin-4-ylamino]-5-fluoro-N-methyl-benzamide]",IC50,[1]; [3],1 to 10 µM
same,IC50,[2]; [4],< 0.1 µM
"COc1cc2c(cc1Nc1ncc(Cl)c(Nc3ccc(N4CCOCC4)cc3OC)n1)CCN(CC(F)(F)F)CC2 [Example 249, 5-Chloro-N*4*-(2-methoxy-4-morpholin-4-yl-phenyl)-N*2*-[8-methoxy-3-(2,2,2-trifluoro-ethyl)-2,3,4,5-tetrahydro-1H-benzo[d]azepin-7-yl]-pyrimidine-2,4-diamine]",IC50,[1]; [7],< 0.1 µM
same,IC50,[2]; [8],> 10 µM
"COc1cc2c(cc1Nc1ncc(Cl)c(Nc3ccc(N4CCN(C)CC4)cc3OC)n1)CCNC(=O)C2 [Example 778, 7-{5-Chloro-4-[2-methoxy-4-(4-methyl-piperazin-1-yl)-phenylamino]-pyrimidin-2-ylamino}-8-methoxy-1,3,4,5-tetrahydro-benzo[d]azepin-2-one]",IC50,[1]; [9],< 0.1 µM
same,IC50,[2]; [10],> 10 µM
"CN1C(=O)OCCc2cc(Nc3ncc(Cl)c(Nc4c(F)cccc4OC4CCOC4)n3)ccc21 (stereo not drawn) [Example 1300, 2-{5-Chloro-4-[2-fluoro-6-(tetrahydro-furan-3-yloxy)-phenylamino]-pyrimidin-2-ylamino}-5-methyl-8,9-dihydro-5H-7-oxa-5-aza-benzocyclohepten-6-one]",IC50,[1]; [5],0.1 to 1 µM
same,IC50,[2]; [6],< 0.1 µM
"COCCN1CCc2cc(Nc3ncc(Cl)c(Nc4ccccc4NS(C)(=O)=O)n3)c(OC)cc2CC1 [Example 242, N-(2-{5-Chloro-2-[8-methoxy-3-(2-methoxy-ethyl)-2,3,4,5-tetrahydro-1H-benzo[d]azepin-7-ylamino]-pyrimidin-4-ylamino}-phenyl)-methanesulfonamide]",IC50,[1]; [7],< 0.1 µM
same,IC50,[2]; [8],1 to 10 µM
"C#CCNC(=O)c1cc(F)cc(F)c1Nc1nc(Nc2ccc3c(c2)NC(=O)CCC3)ncc1Cl [Example 1729, 2-[5-Chloro-2-(2-oxo-2,3,4,5-tetrahydro-1H-benzo[b]azepin-8-ylamino)-pyrimidin-4-ylamino]-3,5-difluoro-N-prop-2-ynyl-benzamide]",IC50,[1]; [3],1 to 10 µM
same,IC50,[2]; [4],0.1 to 1 µM
"CNC(=O)c1ccccc1Nc1nc(Nc2ccc3c(c2)CC(=O)NCC3)ncc1Cl [Example 1811, 2-[5-Chloro-2-(4-oxo-2,3,4,5-tetrahydro-1H-benzo[d]azepin-7-ylamino)-pyrimidin-4-ylamino]-N-methylbenzamide]",IC50,[1]; [3],< 0.1 µM
same,IC50,[2]; [4],< 0.1 µM
"CCN1CC(=O)N(CC)c2cc(Nc3ncc(Cl)c(Nc4ccccc4S(=O)(=O)N(C)C)n3)c(OC)cc2C1 [Example 738, 2-[5-Chloro-2-(1,4-diethyl-7-methoxy-2-oxo-2,3,4,5-tetrahydro-1H-benzo[e][1,4]diazepin-8-ylamino)-pyrimidin-4-ylamino]-N,Ndimethyl-benzenesulfonamide]",IC50,[1]; [9],< 0.1 µM
same,IC50,[2]; [10],> 10 µM
